Tested on: antigen-specific total IgG, IgG1 and IgG2c (H56 antigen)
Design: species or system CB6F1 mice
Conditions: mouse, in vivo

## CpG ODN 2006 [CpG2006]
  increased antibody responses (effect seen with DDA/MMG/CpG2006): not observed

— patent US20250170236A1, “A NOVEL CATIONIC ADJUVANT COMPOSITION” (STATENS SERUM INSTITUT, priority 2022, published 2025)
